Results from US10124004B2, “Pyrido[3,4-d]pyrimidine derivative and pharmaceutically acceptable salt thereof” (Teijin Pharma Limited, priority 2015, dated 2018).
Like-named read-outs stand apart in the source and are kept apart here.

Key:
[1] = biological target: T1, CDK2/cyclin A2 (Homo sapiens, UniProt P24941); assay: Human CDK2/cyclin A2 inhibitory activity (QS S Assist CDK2/Cyclin A2_FP Kit, IMAP fluorescence polarization); format: biochemical
T1 construct: purchased Carna Biosciences, Inc. QS S Assist CDK2/Cyclin A2_FP Kit
Summary of the method: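 Kinase activity read as fluorescence polarization (485/535 nm) after phosphorylated fluorescent substrate binds IMAP reagent (30 min, RT, dark). Enzyme (2.5 ng/well) reacted 60 min at RT with ATP/substrate/metal in HEPES pH 7.4 buffer with Tween 20 and DTT; no-enzyme wells define 0% activity; IC50 by curve fit.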

[2] = biological target: T2, CDK4/cyclin D3 (Homo sapiens, UniProt P11802); assay: Human CDK4/cyclin D3 inhibitory activity (QS S Assist CDK4/Cyclin D3_FP Kit, IMAP fluorescence polarization); format: biochemical
T2 construct: purchased Carna Biosciences, Inc. QS S Assist CDK4/Cyclin D3_FP Kit
Summary of the method: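 IMAP fluorescence-polarization kinase assay with kit ATP/substrate/metal mix and 12.5 to 25 ng/well enzyme in 20 mM HEPES pH 7.4, 0.01% Tween20, 2 mM DTT. Reaction ran 45 min at room temperature, then binding reagent was added for 30 min in the dark. IC50 was taken from dose-response fits of percent inhibition.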

[3] = Human CDK2/cyclin A2 inhibitory activity, read-out: CDK2 Activity symbol
[4] = Human CDK4/cyclin D3 inhibitory activity, read-out: CDK4 Activity symbol
[5] = 50% inhibitory concentration against CDK2/cyclin A2, given as class symbol
[6] = 50% inhibitory concentration against CDK4/cyclin D3, given as class symbol

T2 sequence (P11802 whole entry): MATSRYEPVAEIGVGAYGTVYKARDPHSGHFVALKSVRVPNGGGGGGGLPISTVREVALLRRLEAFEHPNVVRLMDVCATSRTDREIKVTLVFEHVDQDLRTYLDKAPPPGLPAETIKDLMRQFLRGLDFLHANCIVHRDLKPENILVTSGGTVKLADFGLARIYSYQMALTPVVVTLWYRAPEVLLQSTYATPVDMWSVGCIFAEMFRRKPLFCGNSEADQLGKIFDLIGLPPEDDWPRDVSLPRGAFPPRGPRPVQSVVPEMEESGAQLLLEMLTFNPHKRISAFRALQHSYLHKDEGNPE
T2 sequence (P30281 whole entry partner): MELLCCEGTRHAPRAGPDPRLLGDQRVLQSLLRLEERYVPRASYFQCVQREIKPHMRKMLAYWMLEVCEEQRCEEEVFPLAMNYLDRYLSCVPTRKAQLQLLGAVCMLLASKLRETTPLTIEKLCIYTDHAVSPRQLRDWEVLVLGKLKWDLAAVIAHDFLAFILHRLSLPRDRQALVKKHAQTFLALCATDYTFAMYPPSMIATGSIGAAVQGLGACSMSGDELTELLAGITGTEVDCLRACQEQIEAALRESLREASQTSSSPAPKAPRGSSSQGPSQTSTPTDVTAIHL

Row | SMILES | IC50 [1, 3] [nM] | IC50 [2, 4] [nM] | IC50 [1, 5] [nM] | IC50 [2, 6] [nM]
1 | CC(C)Nc1nc([C@@H](C)O)cc2cnc(Nc3ccc(N4CCC(N)C4=O)cn3)nc12 (some centres unmarked) [Compound 583] | ≥ 100 | < 10 |  | 
2 | CC(C)Nc1nc([C@@H](C)O)cc2cnc(Nc3ccc(N4CCN(C(C)C)CC4=O)cn3)nc12 [Compound 584] | ≥ 100 | < 10 |  | 
3 | CC(C)Nc1nc([C@@H](C)O)cc2cnc(Nc3ccc(N4CCN(C(C)C)CC4)nn3)nc12 [Compound 585] | ≥ 100 | < 10 |  | 
4 | CC(C)CN1CCN(c2ccc(Nc3ncc4cc([C@@H](C)O)nc(NC(C)C)c4n3)nn2)CC1 [Compound 586] | ≥ 100 | < 10 |  | 
5 | CC(C)Nc1nc([C@@H](C)O)cc2cnc(Nc3ccc(N4CCN(C(C)CO)CC4)nn3)nc12 (some centres unmarked) [Compound 588] | ≥ 100 | < 10 |  | 
6 | C[C@@H](O)c1cc2cnc(Nc3ccc(N4CCC(O)CC4)nn3)nc2c(NC2CCC(C)(C)OC2)n1 (some centres unmarked) [Compound 589] | ≥ 100 | < 10 |  | 
7 | COC1CCC(Nc2nc([C@@H](C)O)cc3cnc(Nc4ccc(N5CCC(O)CC5)nn4)nc23)CC1 (some centres unmarked) [Compound 590] | ≥ 100 | < 10 |  | 
8 | CO[C@H](C)c1cc2cnc(Nc3ccc(N4CCCC(N)C4=O)cn3)nc2c(NC(C)C)n1 (some centres unmarked) [Compound 591] | ≥ 100 | < 10 |  | 
9 | CNCCOc1ccc(Nc2ncc3cc([C@@H](C)O)nc(NC4CCC(OC)CC4)c3n2)nc1 (some centres unmarked) [Compound 592] | ≥ 100 | < 10 |  | 
10 | CC(C)Nc1nc([C@@H](C)O)cc2cnc(Nc3ccc(N4CCCC(N)C4=O)cn3)nc12 (some centres unmarked) [Compound 593] | ≥ 100 | < 10 |  | 
11 | C[C@@H](O)c1cc2cnc(Nc3ccc(N4CCC(O)CC4)nn3)nc2c(N[C@H]2CCCOC2)n1 [Compound 595] | ≥ 100 | < 10 |  | 
12 | CC(C)CN1CCN(c2ccc(Nc3ncc4cc([C@@H](C)O)nc(NC(C)C)c4n3)nc2)C(=O)C1 [Compound 596] | ≥ 100 | < 10 |  | 
13 | CC(C)Nc1nc([C@@H](C)O)cc2cnc(Nc3ccc(N4CCN(CCO)CC4=O)cn3)nc12 [Compound 597] | ≥ 100 | < 10 |  | 
14 | C[C@@H](O)c1cc2cnc(Nc3ccc(OCCN(C)C)cn3)nc2c(NC2CCC(C)(C)OC2)n1 (some centres unmarked) [Compound 600] | ≥ 100 | < 10 |  | 
15 | CNC1(C)CCN(c2ccc(Nc3ncc4cc([C@@H](C)O)nc(NC(C)C)c4n3)nn2)CC1 [Compound 601] | ≥ 100 | < 10 |  | 
16 | CC(C)Nc1nc([C@@H](C)O)cc2cnc(Nc3ccc(N4CCN(C5CCC5)CC4)nn3)nc12 [Compound 602] | ≥ 100 | < 10 |  | 
17 | CC(C)Nc1nc([C@@H](C)O)cc2cnc(Nc3ccc(N4CCN(C(C)(C)C)CC4)nn3)nc12 [Compound 604] | ≥ 100 | < 10 |  | 
18 | CC(C)Nc1nc([C@@H](C)O)cc2cnc(Nc3ccc(N4CCC(N)CC4=O)cn3)nc12 (some centres unmarked) [Compound 605] | 10 to 100 | < 10 |  | 
19 | CNC1CC2(C1)CN(c1ccc(Nc3ncc4cc([C@@H](C)O)nc(NC(C)C)c4n3)nn1)C2 [Compound 606] | ≥ 100 | < 10 |  | 
20 | CC(C)Nc1nc(C(C)O)cc2cnc(Nc3ccc(N4CCC(O)C(F)C4)nn3)nc12 (centres unmarked) [Compound 608] | ≥ 100 | < 10 |  | 
21 | CNC1CCN(c2ccc(Nc3ncc4cc(C(C)O)nc(NC(C)C)c4n3)nn2)CC1F (centres unmarked) [Compound 609] | ≥ 100 | < 10 |  | 
22 | CNC1CCN(c2ccc(Nc3ncc4cc(C(C)O)nc(NC(C)C)c4n3)nn2)CC1F (centres unmarked) [Compound 610] | ≥ 100 | < 10 |  | 
23 | CC(C)Nc1nc([C@@H](C)O)cc2cnc(Nc3ccc(N4CC5(CC(N(C)C)C5)C4)nn3)nc12 [Compound 611] | ≥ 100 | < 10 |  | 
24 | C[C@@H](O)c1cc2cnc(Nc3ccc(N4CCNCC4=O)cn3)nc2c(N[C@H]2CC[C@H](C)CC2)n1 [Compound 612] | 10 to 100 | < 10 |  | 
25 | CC(C)Nc1nc([C@@H](C)O)cc2cnc(Nc3ccc(SCCN(C)C)nn3)nc12 [Compound 614] | ≥ 100 | < 10 |  | 

Row | SMILES | IC50 [1, 3] [nM] | IC50 [2, 4] [nM] | IC50 [1, 5] [nM] | IC50 [2, 6] [nM]
26 | CC(C)Nc1nc([C@@H](C)O)cc2cnc(Nc3ccc(CC(=O)N4CCN(C(C)C)CC4)cn3)nc12 [Compound 615] | ≥ 100 | < 10 |  | 
27 | CC(C)Nc1nc(C(C)O)cc2cnc(Nc3ccc(N4CCC(N)C(F)C4)nn3)nc12 (centres unmarked) [Compound 618] | ≥ 100 | < 10 |  | 
28 | CC(C)Nc1nc(C(C)O)cc2cnc(Nc3ccc(N4CCC(N)C(F)C4)nn3)nc12 (centres unmarked) [Compound 619] | ≥ 100 | < 10 |  | 
29 | CC(C)Nc1nc(C(C)O)cc2cnc(Nc3ccc(N4CCC(N(C)C)C(F)C4)nn3)nc12 (centres unmarked) [Compound 621] | ≥ 100 | < 10 |  | 
30 | CC(C)Nc1nc(C(C)O)cc2cnc(Nc3ccc(N4CCC(N(C)C)C(F)C4)nn3)nc12 (centres unmarked) [Compound 622] | ≥ 100 | < 10 |  | 
31 | CC(C)Nc1nc([C@@H](C)O)cc2cnc(Nc3ccc(N4C(=O)CN5CCC4CC5)cn3)nc12 [Compound 623] | 10 to 100 | < 10 |  | 
32 | C[C@@H](O)c1cc2cnc(Nc3ccc(N4CCNCC4=O)cn3)nc2c(N[C@H]2CC[C@@H](C)CC2)n1 [Compound 624] | ≥ 100 | < 10 |  | 
33 | CC(C)Nc1nc([C@@H](C)O)cc2cnc(Nc3ccc(N4CCN(CC(C)(C)O)CC4)nn3)nc12 [Compound 625] | ≥ 100 | < 10 |  | 
34 | CC(C)Nc1nc([C@@H](C)O)cc2cnc(Nc3ccc(CN4CCN(CC(C)(C)O)CC4)cn3)nc12 [Compound 626] | ≥ 100 | < 10 |  | 
35 | CC(C)Nc1nc([C@@H](C)O)cc2cnc(Nc3ccc(N4CCN(CC(C)(C)O)CC4=O)cn3)nc12 [Compound 627] |  |  | ≥ 100 | < 10
36 | COC1CCC(Nc2nc([C@@H](C)O)cc3cnc(Nc4ccc(OCCN(C)C)cn4)nc23)CC1 (some centres unmarked) [Compound 628] |  |  | ≥ 100 | < 10
37 | C[C@@H](O)c1cc2cnc(Nc3ccc(OCCN(C)C)cn3)nc2c(N[C@H]2CCCOC2)n1 [Compound 629] |  |  | ≥ 100 | < 10
38 | CC(C)Nc1nc([C@@H](C)O)cc2cnc(Nc3ccc(N4CCCC5(CCCN5)C4=O)cn3)nc12 (some centres unmarked) [Compound 630] |  |  | ≥ 100 | < 10
39 | CC(C)Nc1nc([C@@H](C)O)cc2cnc(Nc3ccc(N4CCN(C(C)C)CCC4=O)cn3)nc12 [Compound 631] |  |  | 10 to 100 | < 10
40 | CC(C)CN1CCC(=O)N(c2ccc(Nc3ncc4cc([C@@H](C)O)nc(NC(C)C)c4n3)nc2)CC1 [Compound 632] |  |  | ≥ 100 | < 10
41 | CC(C)Nc1nc([C@@H](C)O)cc2cnc(Nc3ccc(CN4CCN(C(C)C)CC4)cn3)nc12 [Compound 633] |  |  | ≥ 100 | < 10
42 | CNCCOc1ccc(Nc2ncc3cc([C@@H](C)O)nc(NC4CCC(C)(C)OC4)c3n2)nc1 (some centres unmarked) [Compound 634] |  |  | ≥ 100 | < 10
43 | CNCCOc1ccc(Nc2ncc3cc([C@@H](C)O)nc(N[C@H]4CCCOC4)c3n2)nc1 [Compound 635] |  |  | ≥ 100 | < 10
44 | CC(O)CN1CCN(c2ccc(Nc3ncc4cc([C@@H](C)O)nc(NC(C)C)c4n3)nc2)C(=O)C1 (some centres unmarked) [Compound 636] |  |  | ≥ 100 | < 10
45 | CC(O)CN1CCN(c2ccc(Nc3ncc4cc([C@@H](C)O)nc(NC(C)C)c4n3)nn2)CC1 (some centres unmarked) [Compound 637] |  |  | ≥ 100 | < 10
46 | CC(O)CN1CCN(Cc2ccc(Nc3ncc4cc([C@@H](C)O)nc(NC(C)C)c4n3)nc2)CC1 (some centres unmarked) [Compound 638] |  |  | ≥ 100 | < 10
47 | C[C@@H](O)c1cc2cnc(Nc3ccc(N4CCN(C)CC4)nn3)nc2c(NC2CCC(C)(C)OC2)n1 (some centres unmarked) [Compound 639] |  |  | ≥ 100 | < 10
48 | C[C@@H](O)c1cc2cnc(Nc3ccc(N4CCN(C)CC4)nn3)nc2c(N[C@H]2CCCOC2)n1 [Compound 640] |  |  | ≥ 100 | < 10
49 | COC1CCC(Nc2nc([C@@H](C)O)cc3cnc(Nc4ccc(N5CCN(C)CC5)nn4)nc23)CC1 (some centres unmarked) [Compound 641] |  |  | ≥ 100 | < 10
